We go through five compounds from US20100267561A1, “HERBICIDAL PYRIDAZINONE DERIVATIVES” (priority 2007, published 2010).

Holding throughout (assay type): in vivo
The subject of test [1] is barnyardgrass (Echinochloa crus-galli). The experiment in a line: Test A pre-/postemergence plant response. Put shortly:
(§1)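 Ratings run 0–100 (100 = complete control), assigned visually against untreated controls roughly 10 days after treatment in a greenhouse. Compounds, formulated in non-phytotoxic solvent containing surfactant, were applied as a soil-directed preemergence spray and concurrently postemergence to one- to two-leaf plants 2–10 cm tall.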

Test [2] concerns canarygrass (Phalaris minor). In words: Test A pre-/postemergence plant response. Put shortly: as §1
In another test the test system is corn (Zea mays). The experiment in a line: Test A pre-/postemergence plant response. Put shortly:
as §1

Test [3] has as its system pigweed (Amaranthus retroflexus). The experiment in a line: Test A pre-/postemergence plant response. Put shortly:
as §1

Test [4] has as its system large crabgrass (Digitaria sanguinalis). The experiment in a line: Test A pre-/postemergence plant response. Put shortly: as §1
The subject of test [5] is blackgrass (Alopecurus myosuroides). In words: Test A pre-/postemergence plant response. Put shortly: as §1
The subject of test [6] is wheat (Triticum aestivum). The experiment in a line: Test A pre-/postemergence plant response. Put shortly:
as §1

Test [7] concerns giant foxtail (Setaria faberi). In words: Test A pre-/postemergence plant response. Put shortly:
as §1

Another test relates to rice (Oryza sativa). The experiment in a line: Test B flooded paddy test plant response. Put shortly:
(§2)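 Paddy-water application to 2-leaf plants in pots held under 3 cm of flooding; response is a 0–100 visual control rating against controls after 13 to 15 days, and a dash marks a missing result.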

For test [8], the system named is umbrella sedge (Cyperus difformis). The experiment in a line: Test B flooded paddy test plant response. Put shortly: as §2
In test [9] the test system is ducksalad (Heteranthera limosa). The experiment in a line: Test B flooded paddy test plant response. Put shortly: as §2
In test [10] the test system is barnyardgrass (Echinochloa crus-galli). The experiment in a line: Test B flooded paddy test plant response. Put shortly:
as §2

In test [11] the test system is wild oat (AVEFA, Avena fatua). In words: Test F mixtures with safener cloquintocet-mexyl, pre-/postemergence plant response. As to conditions: for AVEFA Obsd. (observed effect) plant response rating, scale 0 to 100: applied alone. The source says:
(§3) This test evaluated the effect of mixtures of Compound 3, Compound 11, or Compound 12 with the commercial crop safener cloquintocet-mexyl on three plant species. Seeds of test plants consisting of winter wheat (TRZAW, Triticum aestivum), winter barley (HORVX, Hordeum vulgare), and wild oat (AVEFA, Avena fatua) (a weed) were planted into a blend of loam soil and sand and treated preemergence with a directed soil spray using test chemicals formulated in a non-phytotoxic solvent mixture that included a surfactant. At the same time, plants selected from these crop and weed species were treated with postemergence applications of the test chemicals formulated in the same manner. Plants ranged in height from 2 to 18 cm (1- to 4-leaf stage) for postemergence treatments.
(§4) Plants were grown in a greenhouse using supplemental lighting to maintain a photoperiod of about 16 hours; daytime and nighttime temperatures were about 24-30° C. and 19-21° C., respectively. Balanced fertilizer was applied through the watering system. Treatments consisted of Compound 3, Compound 11, or Compound 12 and the above mentioned safener alone and in combination using a spray volume of 457 L/ha. Each treatment was replicated three times. Treated plants and controls were maintained in a greenhouse for 14 to 21 days, after which time all treated plants were compared to controls and visually evaluated. Plant response ratings were calculated as the means of the three replicates and are summarized in Tables F1 to F6, and are based on a scale of 0 to 100 where 0 is no effect and 100 is complete control. Because cloquintocet-mexyl alone caused no injury at the rates tested, the expected effect of a mixture of Compound 3 with cloquintocet-mexyl is the same as the observed effect of Compound 3 applied alone.

For test [12], the system named is winter barley (HORVX, Hordeum vulgare). Described as above. As to conditions: for HORVX Obsd. (observed effect) plant response rating, scale 0 to 100: applied alone.
From the text: as §3, §4

Test [13] relates to winter wheat (TRZAW, Triticum aestivum). The description is as above. As to conditions: for TRZAW Obsd. (observed effect) plant response rating, scale 0 to 100: applied alone.
From the text: as §3, §4

For test [14], the system named is wild oat (AVEFA, Avena fatua). In words: Test G mixtures of Compound 26 with crop safeners, postemergence plant response. As to conditions: applied alone, 125 g a.i./ha. How it is done:
(§5) This test evaluated the effect of mixtures of Compound 26 with commercial crop safeners cloquintocet-mexyl, mefenpyr-diethyl, and fenchlorazole-ethyl on three plant species. Seeds of winter wheat (TRZAW, Triticum aestivum), winter barley (HORVX, Hordeum vulgare), and wild oat (AVEFA, Avena fatua) (a weed) were planted into a silt loam soil. Plants from these seeds were treated postemergence using test chemicals formulated in a non-phytotoxic solvent mixture that included a surfactant. Plants ranged in height from 6 to 10 cm (2- to 3-leaf stage).
(§6) Plants were grown in a greenhouse using supplemental lighting to maintain a photoperiod of about 14 hours; daytime and nighttime temperatures were about 22-26° C. and 15-19° C., respectively. Balanced fertilizer was applied through the watering system. Treatments consisted of Compound 26 and the above mentioned safeners alone and in combination using a spray volume of 281 L/ha. Each treatment was replicated four times. Treated plants and controls were maintained in a greenhouse for 15 days, after which time all treated plants were compared to controls and visually evaluated. Plant response ratings were calculated as the means of the four replicates based on a scale of 0 to 100 where 0 is no effect and 100 is complete control and are summarized in Tables G1 to G3. Because the safeners alone caused no injury at the rates tested, the expected effect of a mixture of Compound 26 with a safener is the same as the observed effect of Compound 26 alone.
(§7) The highest application rate of each safener was tested alone to confirm the absence of herbicidal activity on the test species when appled postemergence at 125 g ai/ha. Therefore, an extrapolated result of zero for each safener alone at 16, 31, or 62 g ai/ha was used to calculate the mixture response of Compound 26 and these safener application rates.

The test system of test [15] is winter barley (HORVX, Hordeum vulgare). The description is as above. As to conditions: applied alone, 125 g a.i./ha. As to the method:
as §5, §6, §7

Test [16] has as its system winter wheat (TRZAW, Triticum aestivum). Described as above. Conditions: applied alone, 125 g a.i./ha. As to the method: as §5, §6, §7
The mark [17] stands for this setting: Postemergence, 31 g ai/ha, 0 to 100 scale, 0 no effect, 100 complete control.
[18] abbreviates: Postemergence, 125 g ai/ha, 0 to 100 scale, 0 no effect, 100 complete control.
The mark [19] stands for this setting: Preemergence, 31 g ai/ha, 0 to 100 scale, 0 is no effect, 100 is complete control.
Where [20] appears, read: Preemergence, 125 g ai/ha, 0 to 100 scale (0 no effect, 100 complete control).
Where [21] appears, read: Flood (flooded paddy test), 250 g ai/ha, scale 0 to 100, 0 no effect, 100 complete control.
The mark [22] stands for this setting: Flood, 62 g ai/ha, scale 0 to 100.

`CCc1cc(-c2ccc(Cl)cc2)nn1-c1c(O)c(C)nn(C)c1=O` [Compound 86]: the “Plant response rating, Barnyardgrass” value in test [1] (setting [17]) is given as 100; in test [1] (setting [18]) it was 100; in test [1] (setting [19]), 50; in test [1] (setting [20]) it was 100; in test [10] (setting [21]) it was 40; in test [10] (setting [22]), 0. Further, the “Plant response rating, Canarygrass” value in test [2] (setting [18]) and in [2] (setting [20]) was 100 in each case. Moreover, the “Plant response rating, Corn” value was 30 with corn (Zea mays) (setting [17]), 90 in the test on corn (Zea mays) (setting [18]), 0 in the test on corn (Zea mays) (setting [19]) and 40 in the test on corn (Zea mays) (setting [20]). The “Plant response rating, Pigweed” value in test [3] (setting [17]), in test [3] (setting [18]), in [3] (setting [19]) and in test [3] (setting [20]) was 0 each time. The “Plant response rating, Crabgrass, Large” value in test [4] (setting [17]) is recorded as 70; in [4] (setting [18]) it was 100; in test [4] (setting [19]), 10; in test [4] (setting [20]), 90. Besides, the “Plant response rating, Blackgrass” value amounted to 80 in test [5] (setting [17]), 100 in [5] (setting [18]), 50 in test [5] (setting [19]) and 90 in test [5] (setting [20]). Moreover, the “Plant response rating, Wheat” value in test [6] (setting [17]) was determined as 20; in test [6] (setting [18]), 50; in test [6] (setting [19]) it was 0; in test [6] (setting [20]), 40. In addition, the “Plant response rating, Foxtail, Giant” value amounted to 70 in test [7] (setting [17]), 90 in [7] (setting [18]), 10 in [7] (setting [19]) and 100 in [7] (setting [20]). The “Plant response rating, Rice” value is 35 with rice (Oryza sativa) (setting [21]) and 30 with rice (Oryza sativa) (setting [22]). The figures for the “Plant response rating, Sedge, Umbrella” value in [8] (setting [21]) and in [8] (setting [22]) were 55 and 0, respectively. Also, the “Plant response rating, Ducksalad” value in [9] (setting [21]) was 65; in test [9] (setting [22]), 30.

As to `CC(C)Cc1cc(-c2ccc(Cl)cc2)nn1-c1c(O)cnn(C)c1=O` [Compound 92], the “Plant response rating, Barnyardgrass” value is 0 in [1] (setting [17]), 80 in test [1] (setting [18]), 0 in [1] (setting [19]) and 20 in test [1] (setting [20]). In addition, the “Plant response rating, Canarygrass” value is on record as 0 in test [2] (setting [17]), 30 in test [2] (setting [18]), 0 in test [2] (setting [19]) and 10 in test [2] (setting [20]). For the same compound, the “Plant response rating, Corn” value in the test on corn (Zea mays) (setting [17]) was found to be 0; in the test with corn (Zea mays) (setting [18]), 20; in the test on corn (Zea mays) (setting [19]), 0; in the test on corn (Zea mays) (setting [20]), 20. Further, the “Plant response rating, Pigweed” value in test [3] (setting [17]), in test [3] (setting [18]), in test [3] (setting [19]) and in [3] (setting [20]) was 0 throughout. The “Plant response rating, Crabgrass, Large” value in test [4] (setting [17]) is on record as 0; in [4] (setting [18]), 10; in test [4] (setting [19]), 0; in test [4] (setting [20]) it was 20. Also, the “Plant response rating, Blackgrass” value in test [5] (setting [17]) turned out to be 0; in test [5] (setting [18]) it was 50; in [5] (setting [19]), 0; in [5] (setting [20]), 0. Also, the “Plant response rating, Wheat” value in test [6] (setting [17]) is recorded as 0; in test [6] (setting [18]), 30; in [6] (setting [19]) it was 0; in test [6] (setting [20]), 0. The “Plant response rating, Foxtail, Giant” value in test [7] (setting [17]) turned out to be 10; in [7] (setting [18]), 60; in test [7] (setting [19]) it was 0; in [7] (setting [20]), 50.

As to `CCCCCC(C)OC(=O)COc1ccc(Cl)c2cccnc12` (stereo not shown) [cloquintocet-mexyl, reference compound], the “AVEFA Obsd. (observed effect) plant response rating, scale 0 to 100” value in test [11] (postemergence, 4 g a.i./ha) is reported as 0; in test [11] (postemergence, 8 g a.i./ha), 0; in [11] (preemergence, 4 g a.i./ha), 0; in test [11] (preemergence, 8 g a.i./ha), 0; in test [14] it was 0. The “plant response (injury), safener alone” value is on record as “no injury” in test [11] (wild oat, safener alone at the rates tested, pre- and postemergence, 14 to 21 days); “no injury” in test [12] (winter barley, safener alone at the rates tested, pre- and postemergence, 14 to 21 days); “no injury” in test [13] (winter wheat, safener alone at the rates tested, pre- and postemergence, 14 to 21 days). Further, the “HORVX Obsd. (observed effect) plant response rating, scale 0 to 100” value in test [12] (postemergence, 4 g a.i./ha) came to 0; in [12] (postemergence, 8 g a.i./ha) it was 0; in [12] (preemergence, 4 g a.i./ha) it was 0; in test [12] (preemergence, 8 g a.i./ha) it was 0; in [15], 0. In addition, the “TRZAW Obsd. (observed effect) plant response rating, scale 0 to 100” value in [13] (postemergence, 4 g a.i./ha) was 0; in test [13] (postemergence, 8 g a.i./ha) it was 0; in test [13] (preemergence, 4 g a.i./ha), 0; in test [13] (preemergence, 8 g a.i./ha) it was 0; in test [16] it was 0.

Turning to `CCOC(=O)c1nc(C(Cl)(Cl)Cl)n(-c2ccc(Cl)cc2Cl)n1` [fenchlorazole-ethyl], the “AVEFA Obsd. (observed effect) plant response rating, scale 0 to 100” value in test [14] is 0. For the same compound, the “HORVX Obsd. (observed effect) plant response rating, scale 0 to 100” value in [15] is on record as 0. The “TRZAW Obsd. (observed effect) plant response rating, scale 0 to 100” value in test [16] is listed as 0.

Turning to `CCOC(=O)C1=NN(c2ccc(Cl)cc2Cl)C(C)(C(=O)OCC)C1` (stereo not shown) [mefenpyr-diethyl], the “AVEFA Obsd. (observed effect) plant response rating, scale 0 to 100” value in test [14] came to 0. Further, in [15], the “HORVX Obsd. (observed effect) plant response rating, scale 0 to 100” value is 0. The “TRZAW Obsd. (observed effect) plant response rating, scale 0 to 100” value in test [16] is reported as 0.
